Laboratory results from patent US11059718B2, “Methods and compositions using peptides and proteins with C-terminal elements” (Sanford Burnham Prebys Medical Discovery Institute, priority 2009, dated 2021).

How the values were obtained:
[1] = tested on: tumor; conditions: VEGF locally superfused on tumors; cited from earlier work
[2] = tested on: orthotopic 22Rv-1 human prostate cancer xenografts; conditions: mouse, in vivo
Protocol: The circulation time was 2 hrs. for the free peptides, 15 min. for the peptide-displaying phage, and 3 hrs. for the peptide-coupled micelles. […] Representative fields from multiple sections of each of these three tumors are shown. Scale bars=50 μm. […] The samples were subjected to image analysis with Scanscope CM-1 scanner for quantification of the FAM-positive areas. Statistical analysis was performed with Student's t-test. n=3; error bars, s.e.m.; triple asterisk, p<0.001.

[3] = tested on: heart (cardiomyocyte apoptosis); experiment: TUNEL staining of heart sections after DOX-liposome treatment; type: in vivo, mice; conditions: 1 mg DOX/kg + iRGD daily, 17 days
Protocol: (FIGS. 14A and 14B) Nude mice bearing orthotopic 22Rv1 human prostate tumors were intravenously injected with DOX-liposomes (3 mg DOX/kg) followed 5 min later by 100 nmol iRGD or PBS. Tumors and tissues were collected 3 hours later. In (FIG. 14A), the tumors were sectioned and stained with an anti-CD31 antibody. The doxorubicin is represented by the light specs that look like four halos in the left panel. Scale bars=200 μm, n=3. In (FIG. 14B), DOX in the tissues was quantified. […] The tumors were harvested and weighed after 17 days of treatment. The number of mice in each group was 5. One of 3 experiments that gave similar results is shown. (FIG. 14D) TUNEL staining was performed immunohistochemically on tissue sections of the tumor and heart samples from the treatment study, and quantified for positivity. Statistical analyses were performed with Student's r-test in (FIG. 14B), and ANOVA in (FIG. 14C) and (FIG. 14D); error bars, s.e.m.; n.s., not significant; single asterisk, p<0.05; double asterisk, p<0.01; triple asterisk, p<0.001. […]
Cryo-sections were immunohistochemically stained, scanned with a Scanscope CM-1 scanner, and positively stained areas were quantified with the ImageScope software (Aperio Technologies, Vista, Calif.; Sugahara et al., 2009). […]

| Compound | enhancement of extravasation of albumin and nanoparticles within the tumor [1] | homing to normal tissue [2] | cardiomyocyte apoptosis (TUNEL), combo group [3] |
| --- | --- | --- | --- |
| VEGF | up to 4 fold | – | – |
| N=C(N)NCCC[C@@H]1NC(=O)[C@@H](N)CSSC[C@@H](C(=O)O)NC(=O)[C@H](CC(=O)O)NC(=O)[C@@H]2CCCN2C(=O)CNC(=O)[C@H](CCCCN)NC(=O)[C@H](CC(=O)O)NC(=O)CNC1=O [iRGD] | – | does not detectably home to any normal tissue | minimally present |
